# Measurements reported in patent US6482429B1, “Stable powder inhalation dosage formulation” (Boehringer Ingelheim Pharmaceuticals, Inc., priority 2001, dated 2002).
# What was measured:
# [1] = Particle size distribution measured using the Aerosizer with Pulse Jet Disperser; format: physicochemical; conditions: average of three measurements
# Source text: The Pulse Jet Disperser device (Amherst Processing Instruments) was used for powder dispersion. Three measurements were made for each sample and the results were averaged.
# [2] = Relative sintering rates under high relative humidity; format: physicochemical; conditions: about 23° C., about one day of exposure, compared with lactose
# Procedure: Two experiments were carried out, one at about 85% relative humidity and another at about 95% relative humidity. The experiments ran over several days, but the largest increment occurs fairly early. Both experiments were carried out at room temperature (about 23° C.). […] Sintering of cellobiose is slower. […].
Relative sintering rate (difference in number fraction Δf versus particle diameter) ([2]; approximately 85% relative humidity),Relative sintering rate (difference in number fraction Δf versus particle diameter) ([2]; approximately 93% relative humidity),SMILES,Mean Particle Size [1] [μm]
slower,slower,"O=C[C@H](O)[C@@H](O)[C@H](O[C@@H]1O[C@H](CO)[C@@H](O)[C@H](O)[C@H]1O)[C@H](O)CO [Cellobiose, cellobiose]",2.032
–,–,"O.OC[C@H]1O[C@@H](O[C@H]2[C@H](O)[C@@H](O)C(O)O[C@@H]2CO)[C@H](O)[C@@H](O)[C@H]1O (stereo partly shown) [Lactose, lactose monohydrate, reference compound]",2.044
